Test results reported in patent US8354410B2 (Bristol-Meyers Squibb Company, priority 2010, dated 2013).

Assays:
HCV replicon = HCV replicon assay (FRET / luciferase reporter); assay type: cell-based, HCV (HUH-7 cells); settings: Hepatitis C virus; HCV replicon cells
Source text: FRET Assay Preparation. To perform the HCV FRET screening assay, 96-well cell culture plates were used. The FRET peptide (Anaspec, Inc.) (Taliani et al., Anal. Biochem. 1996, 240, 60-67) contains a fluorescence donor, EDANS, near one end of the peptide and an acceptor, DABCYL, near the other end. The fluorescence of the peptide is quenched by […] resonance energy transfer (RET) between the donor and the acceptor, but as the NS3 protease cleaves the peptide the products are released from RET quenching and the fluorescence of the donor becomes apparent. The assay reagent was made as follows: 5× cell Luciferase cell culture lysis reagent from Promega (#E153A) diluted to 1× with dH2O, NaCl added to 150 mM final, the FRET peptide diluted to 20 μM final from a 2 mM stock.
To prepare plates, HCV replicon cells, with or without a Renilla luciferase reporter gene, were trypsinized and placed into each well of a 96-well plate with titrated test compounds added in columns 3 through 12; columns 1 and 2 contained a control compound (HCV protease inhibitor), and the bottom row contained cells without compound. The plates were then placed in a CO2 incubator at 37° C.
Assays. Subsequent to addition of the test compounds described above (FRET Assay Preparation), at various times the plate was removed and Alamar blue solution (Trek Diagnostics, #00-100) was added per well as a measure of cellular toxicity. After reading in a Cytoflour 4000 instrument (PE Biosystems), plates were rinsed with PBS and then used for FRET assay by the addition of 30 ul of the FRET peptide assay reagent described above (FRET Assay Preparation) per well. The plate was then placed into the Cytoflour 4000 instrument which had been set to 340 excite/490 emission, automatic mode for 20 cycles and the plate read in a kinetic mode. Typically, the signal to noise using an endpoint analysis after the reads was at least three-fold. Alternatively, after Alamar blue reading, plates were rinsed with PBS, 50 ul of DMEM (high glucose) without phenol red was added and plates were then used for luciferase assay using the Promega Dual-Glo Luciferase Assay System.
Compound analysis was determined by quantification of the relative HCV replicon inhibition and the relative cytotoxicity values. To calculate cytoxicity values, the average Alamar Blue fluorescence signals from the control wells were set as 100% non-toxic. The individual signals in each of the compound test wells were then divided by the average control signal and multiplied by 100% to determine […]. To calculate the HCV replicon inhibition values, an average background value was obtained from the two wells containing the highest amount of HCV protease inhibitor at the end of the assay period. These numbers were similar to those obtained from naïve Huh-7 cells.
The background numbers were then subtracted from the average signal obtained from the control wells and this number was used as 100% activity. The individual signals in each of the compound test wells were then divided by the averaged control values after background subtraction and multiplied by 100% to determine percent activity. EC50 values for a protease inhibitor titration were calculated as the concentration which caused a 50% reduction in FRET or luciferase activity. The two numbers generated for the compound plate, percent cytoxicity and percent activity were used to determine compounds of interest for further analysis.
The HCV replicon luciferase assay was developed to monitor the inhibitory effects of compounds described in the disclosure on HCV viral replication. Utilization of a replicon luciferase reporter assay was first described by Krieger et al (Krieger N, Lohmann V, and Bartenschlager R, J. Virol. 75(10):4614-4624 (2001)). HUH-7 cells, constitutively expressing the HCV replicon, were grown in Dulbecco's Modified Eagle Media (DMEM) (Gibco-BRL) containing 10% Fetal calf serum (FCS) (Sigma) and 1 mg/ml G418 (Gibco-BRL). […]

HCV NS5B = target: T1, HCV NS5B (Hepatitis C virus genotype 1b, UniProt Q9WMX2); assay: HCV NS5B RdRp enzyme assay; assay type: biochemical; settings: HCV NS5B RdRp genotype 1b; standard or modified assay not specified
T1 construct: The protein was expressed with an 18 amino acid C-terminal truncation to enhance the solubility; made in house; host or cells: E. coli BL21(DE3)
Experimental: HCV NS5B RdRp cloning, expression, and purification. The cDNA encoding the NS5B protein of HCV, genotype 1b, was cloned into the pET21a expression vector. The protein was expressed with an 18 amino acid C-terminal truncation to enhance the solubility. The E. coli competent cell line BL21(DE3) was used for expression of the protein. Cultures were grown at 37° C. for ˜4 hours until the cultures reached an optical density of 2.0 at 600 nm. The cultures were cooled to 20° C. and induced with 1 mM IPTG. Fresh ampicillin was added to a final concentration of 50 μg/ml and the cells were grown overnight at 20° C.
Cell pellets (3 L) were lysed for purification to yield 15-24 mgs of purified NS5B. The lysis buffer consisted of 20 mM Tris-HCl, pH 7.4, 500 mM NaCl, 0.5% triton X-100, 1 mM DTT, 1 mM EDTA, 20% glycerol, 0.5 mg/ml lysozyme, 10 mM MgCl2, 15 ug/ml deoxyribonuclease I, and Complete TM protease inhibitor tablets (Roche). After addition of the lysis buffer, frozen cell pellets were resuspended using a tissue homogenizer. To reduce the viscosity of the sample, aliquots of the lysate were sonicated on ice using a microtip attached to a Branson sonicator. The sonicated lysate was centrifuged at 100,000×g for 1 hr at 4° C. and filtered through a 0.2 μm filter unit (Corning).
The protein was purified using three sequential chromatography steps: Heparin sepharose CL-6B, polyU sepharose 4B, and Hitrap SP sepharose (Pharmacia). The chromatography buffers were identical to the lysis buffer but contained no lysozyme, deoxyribonuclease I, MgCl2 or protease inhibitor and the NaCl concentration of the buffer was adjusted according to the requirements for charging the protein onto the column. Each column was eluted with a NaCl gradient which varied in length from 5-50 column volumes depending on the column type. After the final chromatography step, the resulting purity of the enzyme is >90% based on SDS-PAGE analysis. The enzyme was aliquoted and stored at −80° C.
Standard HCV NS5B RdRp enzyme assay. HCV RdRp genotype 1b assays were run in a final volume of 60 μl in 96 well plates (Costar 3912). The assay buffer is composed of 20 mM Hepes, pH 7.5, 2.5 mM KCl, 2.5 mM MgCl2, 1 mM DTT, 1.6 U RNAse inhibitor (Promega N2515), 0.1 mg/ml BSA (Promega R3961), and 2% glycerol. All compounds were serially diluted (3-fold) in DMSO and diluted further in water such that the final concentration of DMSO in the assay was 2%. HCV RdRp genotype 1b enzyme was used at a final concentration of 28 nM. A polyA template was used at 6 nM, and a biotinylated oligo-dT12 primer was used at 180 nM final concentration. Template was obtained commercially (Amersham 27-4110). Biotinylated primer was prepared by Sigma Genosys. 3H-UTP was used at 0.6 μCi (0.29 μM total UTP). Reactions were initiated by the addition of enzyme, incubated at 30° C. for 60 min, and stopped by adding 25 μl of 50 mM EDTA containing SPA beads (4 μg/μl, Amersham RPNQ 0007). Plates were read on a Packard Top Count NXT after >1 hr incubation at room temperature.
Modified HCV NS5B RdRp enzyme assay. A modified enzyme assay was performed essentially as described for the standard enzyme assay except for the following: The biotinylated oligo dT12 primer was precaptured on streptavidin-coated SPA beads by mixing primer and beads in assay buffer and incubating at room temperature for one hour. Unbound primer was removed after centrifugation. The primer-bound beads were resuspended in 20 mM Hepes buffer, pH 7.5 and used in the assay at final concentrations of 20 nM primer and 0.67 μg/μl beads. Order of addition in the assay: enzyme (14 nM) was added to diluted compound followed by the addition of a mixture of template (0.2 nM), 3H-UTP (0.6 μCi, 0.29 μM), and primer-bound beads, to initiate the reaction; concentrations given are final. Reactions were allowed to proceed for 4 hours at 30° C.
IC50 values for compounds were determined using seven different [I]. […]

HCV = settings: cited from earlier work

T1 sequence (Q9WMX2 2420-2992): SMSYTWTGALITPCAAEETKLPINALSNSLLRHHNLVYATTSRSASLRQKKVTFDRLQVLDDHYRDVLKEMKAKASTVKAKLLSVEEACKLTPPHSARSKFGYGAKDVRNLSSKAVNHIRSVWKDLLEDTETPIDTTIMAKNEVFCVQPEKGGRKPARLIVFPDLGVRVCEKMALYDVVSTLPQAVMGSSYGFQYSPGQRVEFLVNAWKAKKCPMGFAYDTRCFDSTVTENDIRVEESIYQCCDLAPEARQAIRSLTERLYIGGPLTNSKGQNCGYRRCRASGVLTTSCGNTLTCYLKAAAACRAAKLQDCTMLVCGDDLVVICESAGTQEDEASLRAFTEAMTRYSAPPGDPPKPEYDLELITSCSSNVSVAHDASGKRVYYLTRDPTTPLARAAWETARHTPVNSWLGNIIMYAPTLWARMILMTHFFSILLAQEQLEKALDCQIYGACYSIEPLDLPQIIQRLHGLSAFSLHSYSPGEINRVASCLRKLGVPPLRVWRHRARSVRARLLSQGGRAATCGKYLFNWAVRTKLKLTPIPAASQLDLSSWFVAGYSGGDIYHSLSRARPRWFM

With `CNC(=O)c1c(-c2ccc(F)cc2)oc2ccc(-c3cc(C(=O)N[C@H](C)c4nc5cnccc5o4)cc(F)c3C)c(F)c12` [5-(5-(1-(1H-imidazo[4,5-o]pyridin-2-yl)cyclopropylcarbamoyl)-2-methylphenyl)-4-fluoro-2-(4-fluorophenyl)-N-methylbenzofuran-3-carboxamide] as the compound, how does the EC50 (HCV replicon) read?
The EC50 was 40 nM.

And the IC50 (HCV NS5B)?
The IC50 was 30 nM.

For alpha-interferon and ribavirin, which sustained efficacy (HCV; combination therapy (Poynard et al. 1998)) is on record?
Its sustained efficacy is 40 % of patients.

Which EC50 (HCV replicon) does the source give for `CNC(=O)c1c(-c2ccc(F)cc2)oc2ccc(-c3cc(C(=O)NC4(c5ccc6cccnc6n5)CC4)ccc3C)cc12` here?
The EC50 was 40 nM.

And the IC50 (HCV NS5B)?
Its IC50 is 3 nM.

Which EC50 (HCV replicon) does the source give for `CNC(=O)c1c(-c2ccc(F)cc2)oc2ccc(-c3cc(C(=O)NC4(c5ccc6cccnc6n5)CC4)cc(F)c3C)c(F)c12` here?
The EC50 was 70 nM.

And the IC50 (HCV NS5B)?
The IC50 was 10 nM.

For `CNC(=O)c1c(-c2ccc(F)cc2)oc2ccc(-c3cc(C(=O)N[C@H](C)c4nc5cnccc5o4)c(OC)cc3C)c(F)c12`, which EC50 (HCV replicon) is on record?
The EC50 was 10 nM.

What about the IC50 (HCV NS5B) of the same compound?
Its IC50 is 40 nM.

For `CNC(=O)c1c(-c2ccc(F)cc2)oc2cc(N(CCO)S(C)(=O)=O)c(C3CC3)cc12` [HCV-796], which hepatic toxicity (HCV; extended dosing of the combination regimens) is on record?
The hepatic toxicity was “hepatic toxicity observed”.

And the “HCV RNA levels in patients” value (HCV; patients, single agent: transient decrease then rebound, more robust drop with interferon and ribavirin)?
The value was “ability to reduce HCV RNA levels in patients”.

With `CNC(=O)c1c(-c2ccc(F)cc2)oc2ccc(-c3cc(C(=O)NC4(c5ccc6ncccc6n5)CC4)ccc3C)cc12` as the compound, how does the EC50 (HCV replicon) read?
Its EC50 is 30 nM.

And the IC50 (HCV NS5B)?
The IC50 was 10 nM.

For `CNC(=O)c1c(-c2ccc(F)cc2)oc2ccc(-c3cc(C(=O)NC4(c5ccc6ccncc6n5)CC4)ccc3C)cc12`, which EC50 (HCV replicon) is on record?
Its EC50 is 3 nM.

What about the IC50 (HCV NS5B) of the same compound?
The IC50 was 5 nM.

For `CNC(=O)c1c(-c2ccc(F)cc2)oc2ccc(-c3cc(C(=O)NC4(c5ccc6ccncc6n5)CC4)cc(F)c3C)c(F)c12`, which EC50 (HCV replicon) is on record?
Its EC50 is 9 nM.

What about the IC50 (HCV NS5B) of the same compound?
Its IC50 is 10 nM.

Which results are given for `CNC(=O)c1c(-c2ccc(F)cc2)oc2ccc(-c3cc(C(=O)NC4(c5ccc6ncccc6n5)CC4)cc(F)c3C)c(F)c12` [5-(5-(1-(1,5-naphthyridin-2-yl)cyclopropylcarbamoyl)-3-fluoro-2-methylphenyl)-4-fluoro-2-(4-fluorophenyl)-N-methylbenzofuran-3-carboxamide]?
EC50 (HCV replicon): 100 nM; IC50 (HCV NS5B): 70 nM

With `CNC(=O)c1c(-c2ccc(F)cc2)oc2ccc(-c3cc(C(=O)NC4(c5ccc6ncccc6n5)CC4)ccc3C)c(F)c12` as the compound, how does the EC50 (HCV replicon) read?
The EC50 was 30 nM.

What about the IC50 (HCV NS5B) of the same compound?
Its IC50 is 10 nM.
